The record followed here is ChEMBL document CHEMBL1148617, “Design, synthesis, and structure-activity relationships of 1-,3-,8-, and 9-substituted-9-deazaxanthines at the human A2B adenosine receptor” (J Med Chem, 2006).

In general, inhibition refers to the share of the control response that was lost under treatment.

One assay addresses T1, Adenosine receptor A2b (Homo sapiens) (UniProt P29275).
T1 sequence (whole entry): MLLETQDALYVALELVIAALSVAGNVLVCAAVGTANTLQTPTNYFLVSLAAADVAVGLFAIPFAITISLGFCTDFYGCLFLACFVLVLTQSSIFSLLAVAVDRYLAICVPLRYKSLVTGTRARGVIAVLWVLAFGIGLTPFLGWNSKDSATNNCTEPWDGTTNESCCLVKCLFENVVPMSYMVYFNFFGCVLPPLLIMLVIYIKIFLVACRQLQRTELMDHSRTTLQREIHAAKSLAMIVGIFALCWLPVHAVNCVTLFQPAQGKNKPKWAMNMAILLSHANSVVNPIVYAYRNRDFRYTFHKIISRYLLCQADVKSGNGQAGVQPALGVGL
The experiment in a line: Displacement of [3H]DPCPX from recombinant human adenosine A2B receptor expressed in HEK293 cells at 0.01 uM. For orientation: In a radioligand displacement assay an active substance lowers the binding of a labelled ligand.
Consider `CC(Oc1ccc(-c2cc3c([nH]2)c(=O)n(C)c(=O)n3C)cc1)C(=O)O` (configuration not stated), for which the inhibition was 5%.
As for `CCCn1c(=O)c2[nH]c(-c3ccc(OC(C)(C)C(=O)Nc4ccc(Br)cc4)cc3)cc2n(CCC)c1=O`, the inhibition was determined as 49%.
On the same count and under the same terms, to `Cn1c(=O)c2[nH]c(-c3ccc(OCC(=O)N[C@H]4C(O)O[C@H](CO)[C@@H](O)[C@@H]4O)cc3)cc2n(C)c1=O` (some centres not stated) belongs 7%; to `COc1cc(NC(=O)COc2ccc(-c3cc4c([nH]3)c(=O)n(C)c(=O)n4C)cc2)nc(OC)n1`, 12%.
Same read-out and setting: to `CCCn1c(=O)c2[nH]c(-c3ccc(OCC(=O)Nc4cc(C)cc(C)n4)cc3)cc2n(CCC)c1=O` belongs 12%; to `CCCn1c(=O)c2[nH]c(-c3ccc(N(C=O)CC(=O)O)cc3)cc2n(CCC)c1=O`, 9%.
On to `CCCn1c(=O)c2[nH]c(-c3ccc(OC(C(=O)Nc4ccc(F)cc4)c4ccccc4)cc3)cc2n(CCC)c1=O` (configuration not stated), for which the inhibition stood at 32%.
Consider `CCCn1c(=O)c2[nH]c(-c3ccc(OCC(=O)NC(CO)c4ccccc4)cc3)cc2n(CCC)c1=O` (configuration not stated), for which the inhibition was 30%.
Consider `CCCn1c(=O)n(C)c(=O)c2[nH]c(-c3ccc(OCC(=O)Nc4ccc5c(c4)CCC5=O)cc3)cc21`, for which the inhibition was determined as 12%.
Regarding `CCCn1c(=O)c2[nH]c(-c3ccc(OCC(=O)NC(C(=O)O)c4ccccc4)cc3)cc2n(CCC)c1=O` (configuration not stated), the inhibition came out at 38%.
As to `CCCn1c(=O)c2[nH]c(-c3ccc(OC(C(=O)Nc4ccccc4)c4ccccc4)cc3)cc2n(CCC)c1=O` (configuration not stated), the inhibition was 44%.
Take `CCCn1c(=O)c2[nH]c(-c3ccc(OCC(=O)N[C@H](C)[C@H](O)c4ccccc4)cc3)cc2n(CCC)c1=O`: the inhibition is 14%.
Take `COCCCn1c(=O)c2[nH]c(-c3ccc(OCC(=O)Nc4ccccc4)cc3)cc2n(CCCOC)c1=O`: the inhibition amounted to 1%.
Turning to `CCCn1c(=O)c2[nH]c(-c3ccc(OCC(=O)OCC)cc3)cc2n(CCC)c1=O`, the inhibition was determined as 9%.
Consider `CCCn1c(=O)c2[nH]c(-c3ccc(OCC(=O)Nc4ncccc4C)cc3)cc2n(C)c1=O`, for which the inhibition was 25%.
For `O=C(COc1ccc(-c2cc3c([nH]2)c(=O)n(CC(F)(F)F)c(=O)n3CC(F)(F)F)cc1)Nc1ccc(Br)cc1`, the inhibition came out at 29%.

Another assay has as its target T1, Adenosine receptor A2b (Homo sapiens). The experiment in a line: Displacement of [3H]DPCPX from recombinant human adenosine A2B receptor expressed in HEK293 cells at 0.1 uM. It counts as cell-based.
Consider `CCCn1c(=O)n(C)c(=O)c2[nH]c(-c3ccc(OCC(=O)Nc4ccc(Br)cc4)cc3)cc21`, for which the inhibition worked out at 84%.
In the case of `CC(C)Cn1c(=O)c2[nH]c(-c3ccc(OCC(=O)O)cc3)cc2n(C)c1=O`, the inhibition was 28%.
Take `CCCn1c(=O)c2[nH]c(-c3ccc(OCC(=O)OCC)cc3OC)cc2n(CCC)c1=O`: the inhibition was found to be 1%.
As for `CC(Oc1ccc(-c2cc3c([nH]2)c(=O)n(C)c(=O)n3C)cc1)C(=O)O` (configuration not stated), the inhibition was determined as 34%.
`CCCn1c(=O)c2[nH]c(-c3ccc(OC(C)(C)C(=O)Nc4ccc(Br)cc4)cc3)cc2n(CCC)c1=O`: the inhibition came to 87%.
As to `Cn1c(=O)c2[nH]c(-c3ccc(OCC(=O)N[C@H]4C(O)O[C@H](CO)[C@@H](O)[C@@H]4O)cc3)cc2n(C)c1=O` (some centres not stated), the inhibition is 33%.
As for `COc1cc(NC(=O)COc2ccc(-c3cc4c([nH]3)c(=O)n(C)c(=O)n4C)cc2)nc(OC)n1`, the inhibition came out at 50%.
On to `CCCn1c(=O)c2[nH]c(-c3ccc(OCC(=O)Nc4cc(C)cc(C)n4)cc3)cc2n(CCC)c1=O`, for which the inhibition was determined as 53%.
Turning to `CCCn1c(=O)c2[nH]c(-c3ccc(N(C=O)CC(=O)O)cc3)cc2n(CCC)c1=O`, the inhibition was determined as 40%.
Take `CCCn1c(=O)c2[nH]c(-c3ccc(OC(C(=O)Nc4ccc(F)cc4)c4ccccc4)cc3)cc2n(CCC)c1=O` (configuration not stated): the inhibition stood at 84%.
The same measure, in the same setting: to `CCCn1c(=O)c2[nH]c(-c3ccc(OCC(=O)NC(CO)c4ccccc4)cc3)cc2n(CCC)c1=O` (configuration not stated) belongs 77%; to `CCCn1c(=O)n(C)c(=O)c2[nH]c(-c3ccc(OCC(=O)Nc4ccc5c(c4)CCC5=O)cc3)cc21`, 50%.
Regarding `CCCn1c(=O)c2[nH]c(-c3ccc(OCC(=O)NC(C(=O)O)c4ccccc4)cc3)cc2n(CCC)c1=O` (configuration not stated), the inhibition amounted to 45%.
Same read-out and setting: next, `CCCn1c(=O)c2[nH]c(-c3ccc(OC(C(=O)Nc4ccccc4)c4ccccc4)cc3)cc2n(CCC)c1=O` (configuration not stated): 89%; `CCCn1c(=O)c2[nH]c(-c3ccc(OCC(=O)N[C@H](C)[C@H](O)c4ccccc4)cc3)cc2n(CCC)c1=O`: 70%.
Consider `COCCCn1c(=O)c2[nH]c(-c3ccc(OCC(=O)Nc4ccccc4)cc3)cc2n(CCCOC)c1=O`, for which the inhibition is 65%.
Turning to `CCCn1c(=O)c2[nH]c(-c3ccc(OCC(=O)OCC)cc3)cc2n(CCC)c1=O`, the inhibition came to 55%.
Take `CCCn1c(=O)c2[nH]c(-c3ccc(OCC(=O)Nc4ncccc4C)cc3)cc2n(C)c1=O`: the inhibition stood at 68%.
The same measure, in the same setting: to `O=C(COc1ccc(-c2cc3c([nH]2)c(=O)n(CC(F)(F)F)c(=O)n3CC(F)(F)F)cc1)Nc1ccc(Br)cc1` belongs 79%.
With `CCCn1c(=O)c2[nH]c(-c3ccc(OCC(=O)O)cc3OC)cc2n(CCC)c1=O`, the inhibition turned out to be 8%.
Consider `Cn1c(=O)c2[nH]c(-c3cccc(OCC(=O)O)c3)cc2n(C)c1=O`, for which the inhibition turned out to be 23%.
In the case of `Cn1c(=O)c2[nH]c(-c3ccc(OCC(=O)O)cc3)c(Br)c2n(C)c1=O`, the inhibition was 24%.
In the case of `Cn1c(=O)c2[nH]c(-c3ccc(OCC(=O)O)cc3)cc2n(CCN2CCOCC2)c1=O`, the inhibition was 18%.

The target in a further assay is Adenosine receptor A2a (Homo sapiens, UniProt P29274). The assay can be described thus: Displacement of [3H]ZM-241385 from recombinant human adenosine A2A receptor expressed in HeLa cells at 0.1 uM.
Sequence of Adenosine receptor A2a (P29274 whole entry): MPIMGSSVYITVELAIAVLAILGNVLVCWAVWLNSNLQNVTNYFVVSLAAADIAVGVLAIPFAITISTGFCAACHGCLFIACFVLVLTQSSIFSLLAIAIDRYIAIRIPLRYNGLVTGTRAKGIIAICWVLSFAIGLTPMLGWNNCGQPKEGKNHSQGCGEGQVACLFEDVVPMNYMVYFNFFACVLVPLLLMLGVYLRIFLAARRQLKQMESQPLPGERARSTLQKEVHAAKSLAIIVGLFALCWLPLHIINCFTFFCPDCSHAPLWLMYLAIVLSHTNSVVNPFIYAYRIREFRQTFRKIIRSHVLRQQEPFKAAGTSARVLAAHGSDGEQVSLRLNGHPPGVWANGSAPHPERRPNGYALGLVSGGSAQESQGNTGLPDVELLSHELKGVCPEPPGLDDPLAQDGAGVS
`CCCn1c(=O)n(C)c(=O)c2[nH]c(-c3ccc(OCC(=O)Nc4ccc(Br)cc4)cc3)cc21`: the inhibition worked out at 91%.
Still for that read-out and setting: to `CC(C)Cn1c(=O)c2[nH]c(-c3ccc(OCC(=O)O)cc3)cc2n(C)c1=O` belongs 1%.
With `CCCn1c(=O)c2[nH]c(-c3ccc(OCC(=O)OCC)cc3OC)cc2n(CCC)c1=O`, the inhibition came out at 10%.
Same read-out and setting: to `CC(Oc1ccc(-c2cc3c([nH]2)c(=O)n(C)c(=O)n3C)cc1)C(=O)O` (configuration not stated) belongs 9%; to `CCCn1c(=O)c2[nH]c(-c3ccc(OC(C)(C)C(=O)Nc4ccc(Br)cc4)cc3)cc2n(CCC)c1=O`, 54%; to `Cn1c(=O)c2[nH]c(-c3ccc(OCC(=O)N[C@H]4C(O)O[C@H](CO)[C@@H](O)[C@@H]4O)cc3)cc2n(C)c1=O` (some centres not stated), 13%.
On to `COc1cc(NC(=O)COc2ccc(-c3cc4c([nH]3)c(=O)n(C)c(=O)n4C)cc2)nc(OC)n1`, for which the inhibition was 14%.
On the same count and under the same terms, next, `CCCn1c(=O)c2[nH]c(-c3ccc(OCC(=O)Nc4cc(C)cc(C)n4)cc3)cc2n(CCC)c1=O`: 27%; `CCCn1c(=O)c2[nH]c(-c3ccc(N(C=O)CC(=O)O)cc3)cc2n(CCC)c1=O`: 9%.
In the case of `CCCn1c(=O)c2[nH]c(-c3ccc(OC(C(=O)Nc4ccc(F)cc4)c4ccccc4)cc3)cc2n(CCC)c1=O` (configuration not stated), the inhibition is 65%.
As to `CCCn1c(=O)c2[nH]c(-c3ccc(OCC(=O)NC(CO)c4ccccc4)cc3)cc2n(CCC)c1=O` (configuration not stated), the inhibition was found to be 53%.
As to `CCCn1c(=O)n(C)c(=O)c2[nH]c(-c3ccc(OCC(=O)Nc4ccc5c(c4)CCC5=O)cc3)cc21`, the inhibition was 26%.
The same measure, in the same setting: to `CCCn1c(=O)c2[nH]c(-c3ccc(OCC(=O)NC(C(=O)O)c4ccccc4)cc3)cc2n(CCC)c1=O` (configuration not stated) belongs 3%; to `CCCn1c(=O)c2[nH]c(-c3ccc(OC(C(=O)Nc4ccccc4)c4ccccc4)cc3)cc2n(CCC)c1=O` (configuration not stated), 75%.
In the case of `CCCn1c(=O)c2[nH]c(-c3ccc(OCC(=O)N[C@H](C)[C@H](O)c4ccccc4)cc3)cc2n(CCC)c1=O`, the inhibition is 18%.
For the compound `COCCCn1c(=O)c2[nH]c(-c3ccc(OCC(=O)Nc4ccccc4)cc3)cc2n(CCCOC)c1=O`, the inhibition was 28%.
As for `CCCn1c(=O)c2[nH]c(-c3ccc(OCC(=O)OCC)cc3)cc2n(CCC)c1=O`, the inhibition came out at 21%.
Regarding `CCCn1c(=O)c2[nH]c(-c3ccc(OCC(=O)Nc4ncccc4C)cc3)cc2n(C)c1=O`, the inhibition turned out to be 26%.
The same measure, in the same setting: next, `O=C(COc1ccc(-c2cc3c([nH]2)c(=O)n(CC(F)(F)F)c(=O)n3CC(F)(F)F)cc1)Nc1ccc(Br)cc1`: 11%; `CCCn1c(=O)c2[nH]c(-c3ccc(OCC(=O)O)cc3OC)cc2n(CCC)c1=O`: 10%; `Cn1c(=O)c2[nH]c(-c3cccc(OCC(=O)O)c3)cc2n(C)c1=O`: 15%.
In the case of `Cn1c(=O)c2[nH]c(-c3ccc(OCC(=O)O)cc3)c(Br)c2n(C)c1=O`, the inhibition worked out at 4%.
In the case of `Cn1c(=O)c2[nH]c(-c3ccc(OCC(=O)O)cc3)cc2n(CCN2CCOCC2)c1=O`, the inhibition was determined as 11%.
